# Measured values published in patent publication US7759384B2, “Carvedilol phosphate salts and/or solvates thereof, corresponding compositions, and/or methods of treatment” (SmithKline Beecham (Cork) Limited, priority 2002, dated 2010).
# Where two headings read alike, the source gives them in different places.
# Key:
# [1] = cited from earlier work
# [2] = aqueous solubility of carvedilol phosphate salts compared with free base and other salts; type: physicochemical; conditions: novel crystalline forms
smiles,measurement,setting,value
COc1ccccc1OCCNCC(O)COc1cccc2[nH]c3ccccc3c12 (racemic) [Carvedilol],solubility,"[1]; neutral or alkaline media, above a pH of 9.0",< 1 µg/mL
same,saturation solubility,"[1]; pH=5, room temperature",about 100 μg/mL
same,saturation solubility,"[1]; pH=7, room temperature",about 23 μg/mL
COc1ccccc1OCCNCC(O)COc1cccc2[nH]c3ccccc3c12.O=P(O)(O)O (centres unmarked) [carvedilol dihydrogen phosphate],solubility compared to the free base of carvedilol,[2],much higher solubility
COc1ccccc1OCCNCC(O)COc1cccc2[nH]c3ccccc3c12.Cl (centres unmarked) [hydrochloride salt of carvedilol],solubility in acidic medium,"[1]; salt generated in situ in acidic medium, which simulates gastric fluid",less soluble
